Consider ten molecules from patent US5965607A, “Substituted Benzo[1,4]dioxines as antiobesity agents” (American Home Products Corporation, priority 1997, dated 1999).

The target of assay [1] is human β2 adrenergic receptors (Homo sapiens, UniProt P07550). As to the kind of experiment: cAMP elevation in CHO cells transfected with human β2 adrenergic receptor. In kind it is cell-based. The note with it: CHO cells expressing human β2 receptor, compound at 10 nM, 10 min, 37° C., relative to isoproterenol at 10 μM; for activation at 0.01 µM: read-out: β2, % of isoproterenol activity (increase in cAMP). Here is the method:
(§1) The activity of the test compounds on human β-adrenergic receptors was determined with Chinese hamster ovary (CHO) cells transfected with human β3, β2, or β1 adrenergic receptors. The preparation of these cells has been described in Emorine, L. J., Marullo, S., Briend-Sutren, M., Patey, G., Tate, K., Delavier-Klutchko, C., Strosberg, A. D. Molecular Characterization of the Human Beta 3-AdrenergicReceptor Science 1989,245(8), 1118-1121 and in Muzzin, P., Revelli, J.-P., Kuhne, F., Gocayne, J. D., McCombie, W. R., Venter, J. C., Giacobino, J.- P., Fraser, C. M. An Adipose Tissue-Specific Beta 3-Adrenergic Receptor. Molecular Cloning and Down-Regulation in Obesity J. Biol. Chem. 1991, 226, 24053-24058. Agonist activity is indicated by increased cAMP levels in the CHO cells. Selectivity of the test compounds for the β3 receptor was assessed by comparison with results in β2 and β1 adrenergic receptor transfected cells.
(§2) 1). Chinese hamster ovary (CHO) cells transfected with human β3, β2, or β1 adrenergic receptors were used in the assay.
(§3) 2). Cells were grown to confluent conditions in 24 well plates.
(§4) 3). Drugs were dissolved in DMSO at a concentration of 10 μM.
(§5) 4). Cells were incubated with drug at 10 nM concentration for 10 min at 37° C. Isoproterenol (Standard 1) was used as the standard compound and assayed at 10 μM which gives a maximal cAMP elevation in all 3 cell types.
(§6) 5). Cell cAMP concentrations were assayed using a scintillation proximity assay from Amersham Corp (Chicago, Ill.).
(§7) 6). Activities for the test compounds are expressed as a percentage of the isoproterenol response.
(§8) a Human β receptors expressed in Chinese hamster ovary cells, compounds tested at 10 nM, results expressed as % of isoproterenol activity (increase in cAMP) at 10 μM.

Assay [2] addresses human β3 adrenergic receptors (Homo sapiens, UniProt P13945). As to the kind of experiment: cAMP elevation in CHO cells transfected with human β3 adrenergic receptor. Particulars: CHO cells expressing human β3 receptor, compound at 10 nM, 10 min, 37° C., relative to isoproterenol at 10 μM; for activation at 0.01 µM: read-out: β3, % of isoproterenol activity (increase in cAMP). It counts as cell-based. Here is the method:
as §1, §2, §3, §4, §5, §6, §7, §8

Assay [3] has as its system plasma free fatty acids. The experiment in a line: Effects on free fatty acid levels in rats. In kind it is in vivo, rat. Particulars: for Rat Free Fatty Acid, elevation of plasma free fatty acids as % of Standard 2 response: 0.1 mg/kg via gavage, blood collected 50 min later, relative to Standard 2 at 0.1 mg/kg. Here is the method: Rats respond to a single oral dose of β3 agonist by increasing plasma free fatty acids (FFA) in response to β3 receptor stimulation on the plasma membrane of the fat cell. 5-{2-[2-(3-Chloro-phenyl)-2-hydroxy-ethylamino]-propyl}-benzo[1,3]dioxole- 2,2-dicarboxylic acid diisopropyl ester (Standard 2) was used as a standard compound. All test compounds were dosed at 0.1 mg/kg and compared to the response by Standard 2.
1). Drugs were dissolved in DMSO at 10 mg/mL.
2). Twenty μl of the DMSO-drug solution was added to 10 mL methyl cellulose:Tween-80 (0.5%:0.1%) for a final concentration of 20 μg/mL.
3). Methyl cellulose:tween-80 drug suspension was given via gavage (1 mL/200g body weight; or 0.1 mg/kg) to rats and blood was collected 50 min later.
4). Plasma was analyzed for free fatty acids using a kit supplied by Biochemical Diagnostics Inc. (Brentwood, N.Y.).
5). Drug response was calculated from the formula below. [formula] Effects on Hyperglycemia in Mice
b Elevation of plasma free fatty acids in rats, compounds tested at 0.1 mg/kg, results expressed as % of 5-{2-[2-(3-chloro-phenyl)-2-hydroxy-ethylamino]-propyl}-benzo[1,3]dioxole- 2,2-dicarboxylic acid diisopropyl ester response (78% increase) at 0.1 mg/kg.

Sequence of human β3 adrenergic receptors (P13945 whole entry): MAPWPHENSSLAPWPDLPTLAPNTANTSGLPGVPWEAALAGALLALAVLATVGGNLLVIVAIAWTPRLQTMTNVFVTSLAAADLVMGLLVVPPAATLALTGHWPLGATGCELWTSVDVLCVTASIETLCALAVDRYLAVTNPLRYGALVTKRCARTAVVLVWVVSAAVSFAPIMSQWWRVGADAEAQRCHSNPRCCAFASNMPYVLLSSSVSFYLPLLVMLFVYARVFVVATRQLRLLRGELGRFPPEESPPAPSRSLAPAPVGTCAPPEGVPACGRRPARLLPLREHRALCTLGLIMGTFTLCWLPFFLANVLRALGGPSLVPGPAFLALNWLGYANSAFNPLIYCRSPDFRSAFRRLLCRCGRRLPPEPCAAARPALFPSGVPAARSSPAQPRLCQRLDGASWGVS
Sequence of human β2 adrenergic receptors (P07550 whole entry): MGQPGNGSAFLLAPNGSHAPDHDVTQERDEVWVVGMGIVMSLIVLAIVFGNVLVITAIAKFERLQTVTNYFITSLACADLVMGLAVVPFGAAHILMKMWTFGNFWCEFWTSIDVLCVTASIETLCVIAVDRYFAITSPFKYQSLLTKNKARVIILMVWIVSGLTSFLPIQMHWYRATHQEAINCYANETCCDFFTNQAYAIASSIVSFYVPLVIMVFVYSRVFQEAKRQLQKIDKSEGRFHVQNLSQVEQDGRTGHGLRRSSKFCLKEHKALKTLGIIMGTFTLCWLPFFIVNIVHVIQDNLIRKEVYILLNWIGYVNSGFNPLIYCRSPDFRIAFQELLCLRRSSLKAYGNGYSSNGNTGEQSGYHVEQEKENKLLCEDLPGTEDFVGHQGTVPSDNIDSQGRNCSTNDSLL

In the case of `CCOCCOC(=O)C1Oc2ccc(C[C@@H](C)NC[C@H](O)c3cccc(Cl)c3)cc2OC1C(=O)OCCOCC` (relative stereo) [Example 7, (2,3-cis)-6-{(2R)-2-[(2R)-2-(3-Chloro-phenyl)-2-hydroxy-ethylamino]-propyl}-2,3-dihydro-benzo[1,4]dioxine-2,3-dicarboxylic acid bis-(2-ethoxy-ethyl)ester], in assay [1], the “β2, % of isoproterenol activity (increase in cAMP)” value stood at 33%. Also, the “β3, % of isoproterenol activity (increase in cAMP)” value in assay [2] came to 40%. Further, the “Rat Free Fatty Acid, elevation of plasma free fatty acids as % of Standard 2 response” value in assay [3] was 7%.

As for `CC(Cc1ccc2c(c1)OC(C(=O)OC(C)C)(C(=O)OC(C)C)O2)NCC(O)c1cccc(Cl)c1` (centres unmarked) [5-{2-[2-(3-Chloro-phenyl)-2-hydroxy-ethylamino]-propyl}-benzo[1,3]dioxole-2,2-dicarboxylic acid diisopropyl ester, reference compound], the “increase of plasma free fatty acids in rats” value in assay [3] (0.1 mg/kg, response of the standard itself) is listed as 78%.

With `CC(C)OC(=O)C1Oc2ccc(C[C@@H](C)NC[C@H](O)c3cccc(Cl)c3)cc2OC1C(=O)OC(C)C` (some centres unmarked) [Example 4], the activation at 0.01 µM was 9% in assay [1] and 4% in assay [2]. Further, in assay [3], the “Rat Free Fatty Acid, elevation of plasma free fatty acids as % of Standard 2 response” value amounted to 32%.

`CC(C)OC(=O)C1Oc2cc(C[C@@H](C)NC[C@H](O)c3cccc(Cl)c3)ccc2OC1C(=O)O` (stereo partly drawn) [Example 5, (2,3-cis)-6-{(2R)-2-[(2R)-2-(3-Chloro-phenyl)-2-hydroxy-ethylamino]-propyl}-2,3-dihydro-benzo[1,4]dioxine-2,3-dicarboxylic acid 3-isopropyl ester]: the activation at 0.01 µM in assay [1] is 11%; in assay [2], 50%. In addition, the “Rat Free Fatty Acid, elevation of plasma free fatty acids as % of Standard 2 response” value in assay [3] came to 6%.

In the case of `CCCCOC(=O)C1Oc2ccc(C[C@@H](C)NC[C@H](O)c3cccc(Cl)c3)cc2OC1C(=O)OCCCC` (some centres unmarked) [Example 6], the activation at 0.01 µM in assay [1] was found to be 16%; in assay [2] it was 51%. Also, in assay [3], the “Rat Free Fatty Acid, elevation of plasma free fatty acids as % of Standard 2 response” value amounted to 0%.

`CCOC(=O)C1Oc2ccc(C[C@@H](C)NC[C@H](O)c3cccc(Cl)c3)cc2OC1C(=O)OCC` (stereo partly drawn) [Example 8, (2,3-cis)-6-{(2R)-2-[(2R)-2-(3-Chloro-phenyl)-2-hydroxy-ethylamino]-propyl}-2,3-dihydro-benzo[1,4]dioxine-2,3-dicarboxylic acid diethyl ester]: the “Rat Free Fatty Acid, elevation of plasma free fatty acids as % of Standard 2 response” value in assay [3] was found to be 19%.

Take `C[C@H](Cc1ccc2c(c1)OC(C(=O)OC1CCCCC1)C(C(=O)OC1CCCCC1)O2)NC[C@H](O)c1cccc(Cl)c1` (stereo partly drawn) [Example 9, (2,3-cis)-6-{(2R)-2-[(2R)-2-(3-Chloro-phenyl)-2-hydroxy-ethylamino]-propyl}-2,3-dihydro-benzo[1,4]dioxine-2,3-dicarboxylic acid dicyclohexyl ester]: the activation at 0.01 µM turned out to be 1% in assay [1] and 3% in assay [2]. In addition, in assay [3], the “Rat Free Fatty Acid, elevation of plasma free fatty acids as % of Standard 2 response” value is on record as 3%.

With `C[C@H](Cc1ccc2c(c1)OC(C(=O)OC1CCCC1)C(C(=O)OC1CCCC1)O2)NC[C@H](O)c1cccc(Cl)c1` (stereo partly drawn) [Example 10, (2,3-cis)-6-{(2R)-2-[(2R)-2-(3-Chloro-phenyl)-2-hydroxy-ethylamino]-propyl}-2,3-dihydro-benzo[1,4]dioxine-2,3-dicarboxylic acid dicyclopentyl ester], the results for the activation at 0.01 µM in assay [1] and in assay [2] were 4% and 3%, respectively. Further, in assay [3], the “Rat Free Fatty Acid, elevation of plasma free fatty acids as % of Standard 2 response” value came out at 20%.

With `CCCCCCCCOC(=O)C1Oc2ccc(C[C@@H](C)NC[C@H](O)c3cccc(Cl)c3)cc2OC1C(=O)OCCCCCCCC` (stereo partly drawn) [Example 11, (2,3-cis)-6-{(2R)-2-[(2R)-2-(3-Chloro-phenyl)-2-hydroxy-ethylamino]-propyl}-2,3-dihydro-benzo[1,4]dioxine-2,3-dicarboxylic acid dioctyl ester], the activation at 0.01 µM in assay [1] is 38%; in assay [2] it was 97%. Further, in assay [3], the “Rat Free Fatty Acid, elevation of plasma free fatty acids as % of Standard 2 response” value was determined as 5%.

As for `C[C@H](Cc1ccc2c(c1)OC(C(=O)OCc1ccccc1)C(C(=O)OCc1ccccc1)O2)NC[C@H](O)c1cccc(Cl)c1` (stereo partly drawn) [Example 12, (2,3-cis)-6-{(2R)-2-[(2R)-2-(3-Chloro-phenyl)-2-hydroxy-ethylamino]-propyl}-2,3-dihydro-benzo[1,4]dioxine-2,3-dicarboxylic acid dibenzyl ester], the activation at 0.01 µM in assay [1] was 11%; in assay [2] it was 27%. In assay [3], the “Rat Free Fatty Acid, elevation of plasma free fatty acids as % of Standard 2 response” value is reported as 11%.
